Numbered stars: 1 amine (or outer) side, 2 acyl side, 3 side chain; on linkers, the order of the positions; unused ones are H or OH. Square brackets hold non-standard residues; d marks the D form. Peptide text beside a SMILES is read from it. * marks the point of attachment. NMeW = CN[C@@H](Cc1c[nH]c2ccccc12)C(=O)O; X2 = NS(=O)(=O)N[C@@H](CC(=O)O)C(=O)*; X1 = NC(=O)N[C@@H](CC(=O)O)C(=O)*; NMeF = CN[C@@H](Cc1ccccc1)C(=O)O; NMeD = CN[C@@H](CC(=O)O)C(=O)O; NMeL = CN[C@@H](CC(C)C)C(=O)O; Suc = O=C(CCC(=O)[*:2])[*:1]; NMeV = CN[C@H](C(=O)O)C(C)C; Oxamoyl = NC(=O)C(=O)*; CONHOH = O=C(NO)*
What was measured:
Neuromedin-K receptor [1] = molecular target: T1, Neuromedin-K receptor (Homo sapiens, UniProt P29371); test: Displacement of ([125I]His3-MePhe7)-NKB from NK3 receptor (unknown origin) expressed in CHO cells by scintillation counter; type: cell-based
T1 sequence (P29371 whole entry): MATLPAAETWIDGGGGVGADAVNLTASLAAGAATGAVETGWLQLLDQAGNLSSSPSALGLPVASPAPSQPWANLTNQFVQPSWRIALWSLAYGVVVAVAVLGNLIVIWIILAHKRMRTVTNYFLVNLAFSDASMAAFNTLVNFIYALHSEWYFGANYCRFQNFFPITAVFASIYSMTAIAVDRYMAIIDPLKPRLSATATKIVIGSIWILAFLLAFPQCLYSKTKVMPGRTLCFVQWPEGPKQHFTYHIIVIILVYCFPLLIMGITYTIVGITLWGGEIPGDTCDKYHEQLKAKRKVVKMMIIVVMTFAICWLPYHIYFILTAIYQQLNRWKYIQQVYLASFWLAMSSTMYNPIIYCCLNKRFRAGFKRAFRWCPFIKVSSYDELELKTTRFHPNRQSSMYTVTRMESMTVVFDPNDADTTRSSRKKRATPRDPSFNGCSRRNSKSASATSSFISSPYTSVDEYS

Neuromedin-K receptor [2] = molecular target: T1, Neuromedin-K receptor; test: Agonist activity at human NK3 receptor expressed in CHO cells assessed as calcium influx relative to 100 nM senktide; type: functional, cell-based
Substance-P receptor = Substance-P receptor (Homo sapiens, UniProt P25103); test: Displacement of [125I]-BH-SP from NK1 receptor (unknown origin) expressed in CHO cells by scintillation counter; type: cell-based
Chain of Substance-P receptor (P25103 whole entry): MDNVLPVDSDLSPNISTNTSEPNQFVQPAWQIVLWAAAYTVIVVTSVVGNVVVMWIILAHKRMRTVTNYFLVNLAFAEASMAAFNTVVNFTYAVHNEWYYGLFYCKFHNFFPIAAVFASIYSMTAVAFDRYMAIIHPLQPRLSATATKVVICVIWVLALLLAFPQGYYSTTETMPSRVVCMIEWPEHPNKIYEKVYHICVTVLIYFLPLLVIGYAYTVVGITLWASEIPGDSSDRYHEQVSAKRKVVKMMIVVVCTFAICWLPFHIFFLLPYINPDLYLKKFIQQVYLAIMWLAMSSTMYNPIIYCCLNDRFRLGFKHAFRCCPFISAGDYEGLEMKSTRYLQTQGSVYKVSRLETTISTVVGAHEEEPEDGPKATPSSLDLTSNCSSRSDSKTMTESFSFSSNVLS

Substance-K receptor = molecular target: T2, Substance-K receptor (Homo sapiens, UniProt P21452); test: Displacement of [125I]-NKA from NK2 receptor (unknown origin) expressed in CHO cells by scintillation counter; type: cell-based
T2 sequence (P21452 whole entry): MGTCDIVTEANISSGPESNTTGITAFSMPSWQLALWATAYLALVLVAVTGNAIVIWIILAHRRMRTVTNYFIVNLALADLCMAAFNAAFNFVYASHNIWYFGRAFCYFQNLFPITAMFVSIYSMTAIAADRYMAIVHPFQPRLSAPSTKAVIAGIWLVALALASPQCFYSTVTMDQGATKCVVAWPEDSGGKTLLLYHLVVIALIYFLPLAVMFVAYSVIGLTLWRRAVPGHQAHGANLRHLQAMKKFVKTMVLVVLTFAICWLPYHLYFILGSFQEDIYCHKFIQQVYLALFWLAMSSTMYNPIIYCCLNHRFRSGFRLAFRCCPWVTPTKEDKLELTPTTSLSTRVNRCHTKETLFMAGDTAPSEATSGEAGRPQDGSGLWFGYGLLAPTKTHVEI

Row | Structure (SMILES) | IC50 (Neuromedin-K receptor [1]) [nM] | EC50 (Neuromedin-K receptor [2]) [nM] | IC50 (Substance-P receptor) [nM] | IC50 (Substance-K receptor) [nM]
1 | CSCC[C@H](NC(=O)[C@H](CC(C)C)NC(=O)CNC(=O)[C@H](Cc1ccccc1)N(C)C(=O)[C@H](Cc1ccccc1)NC(=O)[C@H](CC(=O)O)NC(=O)[C@H](CC(=O)O)NC(C)=O)C(N)=O | 68 | 0.031 | > 10000 | > 10000
2 | CSCC[C@H](NC(=O)[C@H](CC(C)C)NC(=O)CNC(=O)[C@H](Cc1ccccc1)N(C)C(=O)[C@H](Cc1ccccc1)NC(=O)[C@H](CC(=O)O)NC(=O)C(N)=O)C(N)=O (Oxamoyl-DF[NMeF]GLM-NH2) | 7.9 | 0.011 | > 10000 | > 10000
3 | CSCC[C@H](NC(=O)[C@H](CC(C)C)NC(=O)CNC(=O)[C@H](CC(C)C)N(C)C(=O)[C@H](Cc1ccccc1)NC(=O)[C@H](CC(=O)O)NC(=O)CCC(=O)O)C(N)=O (Suc-DF[NMeL]GLM-NH2) | > 10000 |  |  | 
4 | CSCC[C@H](NC(=O)[C@H](CC(C)C)NC(=O)CNC(=O)[C@H](Cc1c[nH]c2ccccc12)N(C)C(=O)[C@H](Cc1ccccc1)NC(=O)[C@H](CC(=O)O)NC(=O)CCC(=O)O)C(N)=O (Suc-DF[NMeW]GLM-NH2) | 123 | 0.033 | > 10000 | > 10000
5 | CSCC[C@H](NC(=O)[C@H](CC(C)C)NC(=O)CNC(=O)[C@H](Cc1ccccc1)N(C)C(=O)[C@H](Cc1ccccc1)NC(=O)[C@@H](CC(=O)O)NC(=O)[C@@H](CC(=O)O)NC(C)=O)C(N)=O | 55 | 0.017 | > 10000 | > 10000
6 | CSCC[C@H](NC(=O)[C@H](CC(C)C)NC(=O)CNC(=O)[C@H](Cc1ccccc1)N(C)C(=O)[C@H](Cc1ccccc1)NC(=O)[C@H](CC(=O)O)NC(N)=O)C(N)=O (X1-F[NMeF]GLM-NH2) | 39 | 0.013 | > 10000 | > 10000
7 | CSCC[C@H](NC(=O)[C@H](CC(C)C)NC(=O)CNC(=O)[C@H](Cc1ccccc1)N(C)C(=O)[C@H](Cc1ccccc1)NC(=O)[C@H](CC(=O)O)NC(=O)NO)C(N)=O ({CONHOH}-DF[NMeF]GLM-NH2) | 10 | 0.043 | > 10000 | > 10000
8 | CSCC[C@H](NC(=O)[C@H](CC(C)C)NC(=O)CNC(=O)[C@H](C(C)C)N(C)C(=O)[C@H](Cc1ccccc1)NC(=O)[C@H](CC(=O)O)NC(=O)CCC(=O)O)C(N)=O (Suc-DF[NMeV]GLM-NH2) | 104 | 0.064 | > 10000 | > 10000
9 | CSCC[C@H](NC(=O)[C@H](CC(C)C)NC(=O)CNC(=O)[C@H](Cc1ccccc1)N(C)C(=O)[C@H](Cc1ccccc1)NC(=O)[C@@H](CC(=O)O)NC(=O)CCC(=O)O)C(N)=O |  |  |  | > 10000
10 | CSCC[C@H](NC(=O)[C@H](CC(C)C)NC(=O)CNC(=O)[C@H](Cc1ccccc1)N(C)C(=O)[C@H](Cc1ccccc1)NC(=O)[C@H](CC(=O)O)NC(=O)NN)C(N)=O | 34 | 0.006 | > 10000 | > 10000
11 | CSCC[C@H](NC(=O)[C@H](CC(C)C)NC(=O)CNC(=O)[C@H](Cc1ccccc1)N(C)C(=O)[C@H](Cc1ccccc1)NC(=O)[C@H](CC(=O)O)NC(=O)[C@@H](CC(=O)O)NC(C)=O)C(N)=O | 73 | 0.018 | > 10000 | > 10000
12 | CSCC[C@H](NC(=O)[C@H](CC(C)C)NC(=O)CNC(=O)[C@H](Cc1ccccc1)N(C)C(=O)[C@H](Cc1ccccc1)NC(=O)[C@H](CC(=O)O)NS(N)(=O)=O)C(N)=O (X2-F[NMeF]GLM-NH2) | 5.6 | 0.0025 | > 10000 | > 10000
13 | CSCC[C@H](NC(=O)[C@H](CC(C)C)NC(=O)CNC(=O)[C@H](Cc1ccccc1)N(C)C(=O)[C@H](Cc1ccccc1)NC(=O)[C@@H](CC(=O)O)NC(=O)[C@H](CC(=O)O)NC(C)=O)C(N)=O | 83 | 0.024 | > 10000 | > 10000
14 | CSCC[C@H](NC(=O)[C@H](CC(C)C)NC(=O)CNC(=O)[C@H](CC(=O)O)N(C)C(=O)[C@H](Cc1ccccc1)NC(=O)[C@H](CC(=O)O)NC(=O)CCC(=O)O)C(N)=O (Suc-DF[NMeD]GLM-NH2) | > 10000 |  |  | 

Source: ChEMBL document CHEMBL3734731 (Medchemcomm, 2015)
